EPA's CvTdb concentration-time database
“And” between values parts separate entries of the source, which are not always exact repeats. Identical values can stand only once.

Tested on: rat
Test: concentration in blood after dosing; negative times count back from the end of exposure
Details: dosed: tert-amyl methyl ether, inhalation, duration: 6 hr, male, F344 (Charles River)

CCC(C)(C)O [tertiary amyl alcohol]
Details | concentration in blood [ng/mL]
0.1349 h, 100 ppm | 3120
0.1606 h, 500 ppm | 18700
0.161 h, 100 ppm | 2610
0.1742 h, 500 ppm | 28700
0.1776 h, 100 ppm | 4090
0.1793 h, 100 ppm | 3740
0.2114 h, 500 ppm | 25900
0.3273 h, 2500 ppm | 96000
0.3463 h, 2500 ppm | 119000
0.3468 h, 100 ppm | 3320
0.3507 h, 100 ppm | 2500
0.3521 h, 500 ppm | 18700
0.3559 h, 2500 ppm | 101000
0.358 h, 500 ppm | 33000
0.3593 h, 500 ppm | 32300
0.3685 h, 100 ppm | 3740
0.369 h, 100 ppm | 3620
0.3717 h, 500 ppm | 25500
0.8785 h, 2500 ppm | 113000
0.8797 h, 2500 ppm | 110000
0.8894 h, 2500 ppm | 91700
0.8908 h, 2500 ppm | 89100
0.9009 h, 100 ppm | 1190
0.9009 h, 500 ppm | 15400
0.9138 h, 500 ppm | 25900
0.9151 h, 500 ppm | 25100
0.9198 h, 100 ppm | 2180
0.9217 h, 500 ppm | 21500
0.9218 h, 100 ppm | 1760
1.789 h, 2500 ppm | 96800
1.799 h, 2500 ppm | 76700
1.823 h, 100 ppm | 1290
1.824 h, 2500 ppm | 89300
2.017 h, 500 ppm | 16200
2.018 h, 500 ppm | 15400
2.026 h, 500 ppm | 11400
3.851 h, 500 ppm | 8400
3.852 h, 500 ppm | 7720
3.858 h, 500 ppm | 4810
3.985 h, 2500 ppm | 61200
3.989 h, 2500 ppm | 52300
3.99 h, 2500 ppm | 49700
3.991 h, 2500 ppm | 48600
9.831 h, 2500 ppm | 3190
9.837 h, 500 ppm | 123
17.91 h, 500 ppm | 185
36 s, 100 ppm | 4500

during exposure
Details | concentration in blood
-112 s, 100 ppm | 3220 ng/mL
-97 s, 100 ppm | 2350 ng/mL
-51 s, 500 ppm | 27000 ng/mL
-36 s, 100 ppm | 3730 ng/mL
-27 s, 500 ppm | 23300 ng/mL
-5.969 h, 2500 ppm | 2030 ng/mL
-5.968 h, 2500 ppm | 298 ng/mL
-5.931 h, 100 ppm | 373 ng/mL
-5.788 h, 100 ppm | 269 ng/mL
-5.779 h, 500 ppm | 1540 ng/mL
-5.777 h, 500 ppm | 432 ng/mL
-5.722 h, 2500 ppm | 4830 ng/mL
-5.695 h, 100 ppm | 530 ng/mL
-5.662 h, 2500 ppm | 10000 ng/mL
-5.661 h, 2500 ppm | 6980 ng/mL
-5.626 h, 100 ppm | 895 ng/mL
-5.601 h, 100 ppm | 790 ng/mL
-5.589 h, 500 ppm | 2720 ng/mL
-5.079 h, 2500 ppm | 24900 ng/mL
-5.077 h, 2500 ppm | 21200 ng/mL
-5.075 h, 2500 ppm | 17100 ng/mL
-5.019 h, 500 ppm | 5250 ng/mL
-5.017 h, 500 ppm | 4200 ng/mL
-5.015 h, 100 ppm | 1710 ng/mL
-5.013 h, 100 ppm | 1350 ng/mL
-5.012 h, 100 ppm | 1200 ng/mL
-5.011 h, 100 ppm | 882 ng/mL
-4.072 h, 100 ppm | 2490 ng/mL
-4.07 h, 100 ppm | 2010 ng/mL
-4.069 h, 100 ppm | 1890 ng/mL and 1860 ng/mL
-3.994 h, 2500 ppm | 30900 ng/mL
-3.993 h, 2500 ppm | 29600 ng/mL
-3.992 h, 2500 ppm | 28500 ng/mL
-3.908 h, 500 ppm | 8890 ng/mL
-3.906 h, 500 ppm | 7410 ng/mL
-2.076 h, 500 ppm | 19600 ng/mL
-2.075 h, 500 ppm | 19000 ng/mL
-2.065 h, 100 ppm | 3210 ng/mL
-2.062 h, 100 ppm | 2590 ng/mL
-2.061 h, 100 ppm | 2340 ng/mL
-2.046 h, 100 ppm | 4250 ng/mL
-2.018 h, 2500 ppm | 59800 ng/mL
-2.017 h, 2500 ppm | 58900 ng/mL
-2 h, 2500 ppm | 84600 ng/mL
-1.996 h, 2500 ppm | 78100 ng/mL
-0.2032 h, 2500 ppm | 99500 ng/mL
-0.1979 h, 2500 ppm | 89100 ng/mL
-0.1701 h, 2500 ppm | 95600 ng/mL
-0.031 h, 500 ppm | 18700 ng/mL
